Test results taken from ChEMBL document CHEMBL1201862, “PubChem BioAssay data set” (2004).
Active and inactive are the calls of the source.

Columns and labels:
[1] = system: Vero; experiment: cells; assay type: functional; conditions: Chlorocebus sabaeus
[2] = target: Paired box protein Pax-8 (Homo sapiens, UniProt Q06710); experiment: inhibitors of PAX8-driven TPO luciferase reporter, dose response, RMG-I cells, cherry-pick (AID 687027); assay type: functional, cell-based;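 also: luciferase reporter driven by Pax8 target thyroperoxidase promoter measured by SteadyGlo luminescence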
[3] = system: Vero; experiment: cells; assay type: functional, cell-based; conditions: Chlorocebus sabaeus
[4] = target: Cytochrome P450 3A4 (Homo sapiens, UniProt P08684); conditions: Potency;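 also: confirmatory qHTS run detecting inhibitors and substrates of CYP3A4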
[5] = HEp-2 cell cytotoxicity, dose response, cytotoxicity control for RSV inhibitor project, HTS (AID 2410); assay type: functional; conditions: human respiratory syncytial virus
[6] = cells; assay type: functional, cell-based
[7] = cells; assay type: functional, cell-based; remark: listed apart in the source
[8] = target: T1, Carboxy-terminal domain RNA polymerase II polypeptide A small phosphatase 1 (Homo sapiens, UniProt Q9GZU7); experiment: inhibitors of CTDSP1, concentration-response testing, biochemical assay, absorbance-based, actives from ultra-high-throughput screening (AID 540297); assay type: functional
T1 sequence (Q9GZU7 whole entry): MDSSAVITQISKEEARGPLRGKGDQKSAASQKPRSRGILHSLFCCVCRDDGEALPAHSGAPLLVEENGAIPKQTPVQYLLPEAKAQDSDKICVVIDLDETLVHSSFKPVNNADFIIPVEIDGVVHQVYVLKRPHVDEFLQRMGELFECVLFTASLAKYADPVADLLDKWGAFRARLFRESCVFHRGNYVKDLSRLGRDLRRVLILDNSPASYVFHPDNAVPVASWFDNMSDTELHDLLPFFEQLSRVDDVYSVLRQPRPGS

[9] = target: Large T antigen (Simian virus 40, UniProt P03070); assay type: functional, Betapolyomavirus macacae;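 also: Confirmatory-stage PubChem screen for compounds that inhibit SV40 T antigen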
[10] = target: Photoreceptor-specific nuclear receptor (Homo sapiens, UniProt Q9Y5X4); assay type: functional, cell-based;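 also: CHO-S cells with Gal4-NCOR and VP16-NR2E3 two-hybrid luciferase reporter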
[11] = target: T2, Polyadenylate-binding protein 1 (Homo sapiens, UniProt P11940); experiment: PABP1 MLLE–PAM2 binding inhibitor potency, dose response, biochemical, fluorescence polarization, FITC-PAM2 peptide (AID 602259); assay type: functional; conditions: read-out: IC50_Mean
[12] = target: T3, Protein skinhead-1 (Caenorhabditis elegans, UniProt P34707); assay type: functional
T3 sequence (P34707 whole entry): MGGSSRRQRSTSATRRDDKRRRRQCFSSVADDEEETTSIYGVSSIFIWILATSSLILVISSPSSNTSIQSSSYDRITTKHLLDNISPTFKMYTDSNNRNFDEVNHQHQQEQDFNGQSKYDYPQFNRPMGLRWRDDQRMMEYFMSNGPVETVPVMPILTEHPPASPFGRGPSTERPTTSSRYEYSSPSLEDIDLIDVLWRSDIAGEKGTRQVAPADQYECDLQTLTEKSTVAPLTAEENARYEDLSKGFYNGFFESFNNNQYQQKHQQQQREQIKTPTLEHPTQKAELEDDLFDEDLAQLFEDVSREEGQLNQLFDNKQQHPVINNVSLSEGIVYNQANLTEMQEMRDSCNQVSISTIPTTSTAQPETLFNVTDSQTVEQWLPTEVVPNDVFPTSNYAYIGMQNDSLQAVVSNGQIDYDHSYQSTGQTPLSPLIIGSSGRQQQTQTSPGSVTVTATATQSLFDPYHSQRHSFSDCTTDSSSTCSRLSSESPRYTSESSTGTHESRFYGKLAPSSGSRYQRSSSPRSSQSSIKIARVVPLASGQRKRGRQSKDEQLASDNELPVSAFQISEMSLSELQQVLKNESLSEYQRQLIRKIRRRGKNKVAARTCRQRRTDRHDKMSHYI

[13] = target: FAD-linked sulfhydryl oxidase ALR (Homo sapiens, UniProt P55789); experiment: inhibitors of human ALR sulfhydryl oxidase, dose response, biochemical, H2O2 detection, luminescence, cherry-pick (AID 493248)
[14] = target: T2, Polyadenylate-binding protein 1; experiment: PABP1 MLLE–PAM2 interaction inhibitors, dose response, miRNA deadenylation inhibitor project, biochemical, fluorescence polarization, Cy5-PAM2 peptide, secondary (AID 602260); assay type: functional; conditions: read-out: IC50_Mean
[15] = cells; assay type: functional, cell-based; remark: listed apart in the source
[16] = cells; assay type: functional, cell-based; remark: listed apart in the source
[17] = microbe, parasite or virus in culture; assay type: functional; conditions: Mycobacterium tuberculosis
[18] = target: T4, Fatty acid synthase (Homo sapiens, UniProt P49327); experiment: FAS thioesterase domain inhibitors, dose response, biochemical, kinetic fluorescence intensity (AID 624326); assay type: functional;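 also: rate of fluorescence rise from hydrolysis of a fluorogenic O-methyl fluorescein ester substrate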
[19] = target: T4, Fatty acid synthase; experiment: FAS thioesterase domain inhibitors, dose response, biochemical, endpoint fluorescence intensity, uHTS hits (AID 624327); assay type: functional;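 also: fluorescence from hydrolysis of an O-methyl fluorescein acyl ester substrate by the enzyme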

Large T antigen, sequence (P03070 whole entry, the tested form may be a part): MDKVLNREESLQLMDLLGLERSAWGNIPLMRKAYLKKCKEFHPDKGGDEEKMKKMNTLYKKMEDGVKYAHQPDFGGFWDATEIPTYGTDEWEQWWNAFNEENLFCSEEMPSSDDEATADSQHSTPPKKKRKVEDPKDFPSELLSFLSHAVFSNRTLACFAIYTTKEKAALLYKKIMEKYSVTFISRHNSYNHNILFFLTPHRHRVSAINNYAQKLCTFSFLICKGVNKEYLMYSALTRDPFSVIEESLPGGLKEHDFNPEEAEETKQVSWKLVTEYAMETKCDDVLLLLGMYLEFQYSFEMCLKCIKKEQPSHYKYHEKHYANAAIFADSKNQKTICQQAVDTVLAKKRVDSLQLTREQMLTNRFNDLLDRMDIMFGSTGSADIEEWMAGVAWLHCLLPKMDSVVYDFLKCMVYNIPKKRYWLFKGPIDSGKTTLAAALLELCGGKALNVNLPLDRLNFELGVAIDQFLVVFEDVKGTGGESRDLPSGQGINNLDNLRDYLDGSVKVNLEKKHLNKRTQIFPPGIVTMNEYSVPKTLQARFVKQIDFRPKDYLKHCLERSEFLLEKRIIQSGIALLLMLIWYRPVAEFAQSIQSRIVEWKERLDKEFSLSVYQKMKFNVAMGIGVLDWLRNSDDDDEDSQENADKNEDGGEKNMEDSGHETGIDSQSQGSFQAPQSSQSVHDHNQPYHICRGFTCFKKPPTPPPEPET
Cytochrome P450 3A4, sequence (P08684 whole entry): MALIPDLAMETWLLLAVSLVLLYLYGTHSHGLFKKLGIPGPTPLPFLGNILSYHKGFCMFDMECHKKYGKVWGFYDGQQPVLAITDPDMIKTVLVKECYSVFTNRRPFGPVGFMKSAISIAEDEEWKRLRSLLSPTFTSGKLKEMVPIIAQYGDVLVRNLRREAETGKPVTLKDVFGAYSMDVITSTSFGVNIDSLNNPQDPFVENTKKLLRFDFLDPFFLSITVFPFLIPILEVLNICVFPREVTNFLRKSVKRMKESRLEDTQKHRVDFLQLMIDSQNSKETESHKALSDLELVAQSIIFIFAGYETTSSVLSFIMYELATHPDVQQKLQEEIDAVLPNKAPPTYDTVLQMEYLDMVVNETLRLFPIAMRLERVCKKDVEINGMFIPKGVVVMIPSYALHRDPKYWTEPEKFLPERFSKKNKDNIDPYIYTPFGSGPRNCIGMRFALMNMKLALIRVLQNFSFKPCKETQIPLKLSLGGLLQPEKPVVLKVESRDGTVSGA
T2 sequence (P11940 whole entry): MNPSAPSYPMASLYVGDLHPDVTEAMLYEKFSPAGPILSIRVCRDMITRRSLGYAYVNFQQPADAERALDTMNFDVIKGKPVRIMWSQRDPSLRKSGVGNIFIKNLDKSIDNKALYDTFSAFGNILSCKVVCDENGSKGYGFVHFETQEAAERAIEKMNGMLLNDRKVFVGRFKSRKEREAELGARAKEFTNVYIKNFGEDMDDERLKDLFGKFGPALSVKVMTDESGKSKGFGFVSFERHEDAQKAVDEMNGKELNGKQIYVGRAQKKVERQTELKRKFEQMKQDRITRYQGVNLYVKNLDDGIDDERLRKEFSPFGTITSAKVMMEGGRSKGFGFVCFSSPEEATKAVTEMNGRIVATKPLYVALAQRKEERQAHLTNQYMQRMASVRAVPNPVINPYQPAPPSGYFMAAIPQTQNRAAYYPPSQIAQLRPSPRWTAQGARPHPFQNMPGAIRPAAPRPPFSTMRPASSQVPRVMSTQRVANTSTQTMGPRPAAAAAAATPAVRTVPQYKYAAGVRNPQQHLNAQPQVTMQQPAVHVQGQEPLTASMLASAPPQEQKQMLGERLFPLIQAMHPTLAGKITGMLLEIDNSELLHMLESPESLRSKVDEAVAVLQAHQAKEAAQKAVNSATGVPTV
T4 sequence (P49327 whole entry, the tested form may be a part): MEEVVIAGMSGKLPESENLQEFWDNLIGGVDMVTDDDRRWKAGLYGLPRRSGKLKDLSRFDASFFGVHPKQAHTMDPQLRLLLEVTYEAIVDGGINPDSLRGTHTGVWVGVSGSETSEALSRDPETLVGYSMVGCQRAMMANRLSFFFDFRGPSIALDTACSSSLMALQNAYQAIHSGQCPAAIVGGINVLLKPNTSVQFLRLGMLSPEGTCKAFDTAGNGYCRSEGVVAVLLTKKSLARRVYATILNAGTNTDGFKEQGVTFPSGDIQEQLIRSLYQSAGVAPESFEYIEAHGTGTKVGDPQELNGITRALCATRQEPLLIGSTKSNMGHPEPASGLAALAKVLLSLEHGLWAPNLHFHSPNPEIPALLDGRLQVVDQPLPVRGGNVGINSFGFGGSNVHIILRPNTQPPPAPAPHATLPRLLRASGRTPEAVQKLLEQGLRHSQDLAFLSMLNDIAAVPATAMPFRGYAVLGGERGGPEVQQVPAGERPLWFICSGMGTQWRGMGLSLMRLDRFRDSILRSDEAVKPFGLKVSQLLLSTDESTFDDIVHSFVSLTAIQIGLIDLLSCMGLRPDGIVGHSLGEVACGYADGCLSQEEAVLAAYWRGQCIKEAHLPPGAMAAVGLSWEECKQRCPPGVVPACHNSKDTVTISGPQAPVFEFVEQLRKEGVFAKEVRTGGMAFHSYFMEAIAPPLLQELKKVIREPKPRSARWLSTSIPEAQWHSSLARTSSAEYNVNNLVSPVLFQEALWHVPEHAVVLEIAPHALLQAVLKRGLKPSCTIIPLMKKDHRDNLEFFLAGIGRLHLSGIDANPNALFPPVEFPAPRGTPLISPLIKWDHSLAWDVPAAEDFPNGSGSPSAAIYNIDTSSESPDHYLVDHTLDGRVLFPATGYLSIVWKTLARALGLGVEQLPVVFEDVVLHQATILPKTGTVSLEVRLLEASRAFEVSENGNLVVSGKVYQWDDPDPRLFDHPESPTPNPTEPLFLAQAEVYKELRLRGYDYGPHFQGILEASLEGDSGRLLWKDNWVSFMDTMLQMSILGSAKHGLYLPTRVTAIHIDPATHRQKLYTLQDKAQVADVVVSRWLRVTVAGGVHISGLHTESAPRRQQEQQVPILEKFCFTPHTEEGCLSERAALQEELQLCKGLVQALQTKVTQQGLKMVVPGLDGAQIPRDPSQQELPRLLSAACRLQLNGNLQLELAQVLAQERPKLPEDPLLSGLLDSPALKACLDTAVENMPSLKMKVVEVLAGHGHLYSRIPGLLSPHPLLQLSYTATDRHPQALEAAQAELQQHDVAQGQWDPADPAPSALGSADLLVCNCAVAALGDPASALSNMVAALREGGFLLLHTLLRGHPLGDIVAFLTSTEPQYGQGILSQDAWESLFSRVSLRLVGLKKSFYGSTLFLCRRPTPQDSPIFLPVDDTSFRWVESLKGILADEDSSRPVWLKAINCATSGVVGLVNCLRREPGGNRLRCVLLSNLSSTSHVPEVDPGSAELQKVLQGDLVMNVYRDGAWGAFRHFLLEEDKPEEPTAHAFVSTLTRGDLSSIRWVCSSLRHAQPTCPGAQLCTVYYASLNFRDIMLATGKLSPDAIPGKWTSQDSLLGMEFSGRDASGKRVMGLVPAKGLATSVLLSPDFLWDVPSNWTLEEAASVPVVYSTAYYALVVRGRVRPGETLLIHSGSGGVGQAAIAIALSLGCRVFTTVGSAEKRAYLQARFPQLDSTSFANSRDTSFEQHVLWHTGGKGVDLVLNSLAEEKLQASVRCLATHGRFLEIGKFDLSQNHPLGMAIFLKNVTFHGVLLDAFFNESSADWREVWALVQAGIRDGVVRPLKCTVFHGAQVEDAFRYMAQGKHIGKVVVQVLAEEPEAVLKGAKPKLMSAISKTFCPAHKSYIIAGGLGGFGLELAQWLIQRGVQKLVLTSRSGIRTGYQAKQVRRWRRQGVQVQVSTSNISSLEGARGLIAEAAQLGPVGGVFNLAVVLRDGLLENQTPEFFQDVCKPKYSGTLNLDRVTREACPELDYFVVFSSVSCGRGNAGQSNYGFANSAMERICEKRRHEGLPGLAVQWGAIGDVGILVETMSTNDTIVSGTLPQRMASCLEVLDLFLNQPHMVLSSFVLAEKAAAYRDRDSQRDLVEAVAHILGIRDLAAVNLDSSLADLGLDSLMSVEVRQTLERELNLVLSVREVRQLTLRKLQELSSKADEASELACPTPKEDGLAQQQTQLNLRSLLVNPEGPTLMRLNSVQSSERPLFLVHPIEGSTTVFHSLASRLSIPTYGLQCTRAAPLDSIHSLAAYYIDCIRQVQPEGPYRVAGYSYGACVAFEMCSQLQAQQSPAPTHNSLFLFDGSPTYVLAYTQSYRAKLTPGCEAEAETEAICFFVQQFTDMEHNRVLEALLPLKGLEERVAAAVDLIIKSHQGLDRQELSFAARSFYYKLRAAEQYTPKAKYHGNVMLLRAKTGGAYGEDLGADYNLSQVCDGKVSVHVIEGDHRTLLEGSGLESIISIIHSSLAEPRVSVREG
Photoreceptor-specific nuclear receptor, sequence (Q9Y5X4 whole entry, the tested form may be a part): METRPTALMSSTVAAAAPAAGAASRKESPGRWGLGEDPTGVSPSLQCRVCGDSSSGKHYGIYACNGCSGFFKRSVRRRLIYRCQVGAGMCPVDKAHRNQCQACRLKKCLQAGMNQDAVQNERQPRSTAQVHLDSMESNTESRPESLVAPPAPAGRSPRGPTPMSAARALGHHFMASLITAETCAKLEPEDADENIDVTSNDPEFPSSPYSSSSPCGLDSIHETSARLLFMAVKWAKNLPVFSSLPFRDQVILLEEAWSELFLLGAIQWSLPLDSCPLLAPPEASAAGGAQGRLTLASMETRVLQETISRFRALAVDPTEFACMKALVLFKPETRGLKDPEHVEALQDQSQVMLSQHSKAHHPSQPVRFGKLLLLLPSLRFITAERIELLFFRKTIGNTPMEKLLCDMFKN
FAD-linked sulfhydryl oxidase ALR, sequence (P55789 whole entry): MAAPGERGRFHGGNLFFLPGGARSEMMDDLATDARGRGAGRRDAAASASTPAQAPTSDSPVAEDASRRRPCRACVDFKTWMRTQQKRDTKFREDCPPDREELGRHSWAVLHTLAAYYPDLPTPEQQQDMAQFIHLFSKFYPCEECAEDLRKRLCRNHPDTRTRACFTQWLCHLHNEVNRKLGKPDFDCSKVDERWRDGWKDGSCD

In the case of `C[C@]12CC[C@H](O)C[C@@H]1CC[C@@H]1[C@@H]2CC[C@]2(C)[C@@H](C3=CC(=O)OC3)CC[C@]12O`, the CC50 [1] is reported as 1.65 µM (active), the AC50 [2] is reported as 2.09 µM (active) and the IC50 [3] is reported as < 0.05 µM (active).
With `COC(=O)c1ccc(CN2[C@@H]3C[C@@H](O)CC[C@@H]3C[C@H]2C(=O)OC)cc1` the AC50 [4] was 15.8 µM (inconclusive).
For `COc1ccc(CNC(=O)C(C)Cc2ccccc2)cc1O` (stereo unspecified), the AC50 [4] was 6.31 µM (inconclusive).
In the case of `Cc1ccc2nc(-c3ccc(N)cc3)sc2c1S(=O)(=O)O`, the AC50 [4] is reported as 31.6 µM (inconclusive).
With `N#C/C(=C/c1ccc(N2CCCCC2)o1)C(=O)NCCc1c[nH]c2ccccc12` the CC50 [1] was > 25 µM (active) and the CC50 [5] was 49.6 µM (active).
In the case of `O=C(NCCc1ccccc1)C1CCN(C(=O)c2ccc([N+](=O)[O-])cc2)CC1`, the EC50 [6] is reported as > 29.9 µM (inactive) and the IC50 [7] is reported as > 29.9 µM (inactive).
For `Nc1c(C(=O)OCC(=O)Nc2cccc([N+](=O)[O-])c2)[nH]c(=O)[nH]c1=O`, the IC50 [8] was 7.55 µM (active).
With `O=C(NCCCN1CCOCC1)c1ccc(/C=C2\Oc3ccccc3N(Cc3ccccc3F)C2=O)cc1` the IC50 [3] was 21.9 µM (active).
With `O=[N+]([O-])c1ccc2c(c1N1CCCCC1)=NC1(CCCCC1)[N+]=2[O-]` the IC50 [9] was > 100 µM (active).
In the case of `COc1cc(/C=C2\C(C)=C(C#N)c3nc(N)c(C#N)c(C)c32)ccc1OCC(=O)O`, the IC50 [9] is reported as 58.1 µM (active).
For `CC(=O)N1c2ccc(S(=O)(=O)N3CCC(C(=O)Nc4cccc(Cl)c4)CC3)cc2CC1C` (stereo unspecified), the IC50 [10] was 1.47 µM (active).
With `COc1ccc(NC2CCCN(C(=O)CSc3ccccc3)C2)cc1` (stereo unspecified) the IC50 [9] was 7.48 µM (active).
With `Cn1c(=O)c2nc(Nc3ccccc3)[nH]c2n(C)c1=O` the EC50 [6] was > 29.9 µM (inactive) and the IC50 [7] was > 29.9 µM (inactive).
In the case of `CC(C)(C)NC(=O)CN(C(=O)CCN1CCCc2ccccc21)C(C)(C)C`, the IC50 [11] is reported as > 66 µM (inactive), the IC50 [12] is reported as > 100 µM (inactive) and the AC50 [13] is reported as 4.37 µM (active). For the same compound, the IC50 [14] was > 66 µM (inactive).
In the case of `CCOC(=O)Cc1csc(SCC(=O)Nc2sc3c(c2C(N)=O)CCC3)n1`, the IC50 [8] is reported as 4.63 µM (active).
In the case of `Cc1ccccc1CN1C(=O)CSc2ccc(C(=O)N3CCOCC3)cc21`, the EC50 [15] is reported as > 350 µM (not active) and the EC50 [16] is reported as > 350 µM (not active).
For `CCN1CSC(=S)N(Cc2ccccc2)C1`, the CC50 [1] was 16.1 µM (active) and the CC50 [17] was 20.7 µM (active).
For `COc1ccc(CN(Cc2cc3cccc(C)c3n3nnnc23)C(=O)N2CCOCC2)cc1`, the IC50 [18] was 26.4 µM (inactive) and the IC50 [19] was 18.8 µM (active).
For `CS(=O)(=O)c1ccc2nc(NC(=O)C3CC(=O)N(c4ccc(F)cc4)C3)sc2c1` (stereo unspecified), the EC50 [15] was > 350 µM (not active) and the EC50 [16] was > 350 µM (not active).
